In patent US20200278355A1, “CONJUGATED PROTEINS AND USES THEREOF” (THE SCRIPPS RESEARCH INSTITUTE, priority 2017, published 2020):
Entries after “also recorded” stand apart in the source; their conditions may differ.

Columns and labels:
[1] = system: CRY1 protein content; test: CRY1 protein content by immunoblotting in H460 cells; type: cell-based, human; details: 9 h
Method: FIG. 13A-FIG. 13E illustrate characterization of NR0B1 ligands in Keap1-mutant NSCLC cells. […] Top: Heat map depicting changes in gene expression between H460 cells expressing shNRF2, shNR0B1 or a control (shGFP) and those treated with vehicle (DMSO), BPK-29 or BPK-9 (30 μM, 12 h). Expression for each condition was first normalized to appropriate controls (shGFP or DMSO) and then normalized by row. Bottom: Overlap between gene sets regulated in BPK-29-treated vs shNR0B1 H460 cells. Gene set enrichment analysis (GSEA) was applied to all genes that were differentially expressed between shNR0B1-H460 cells and shGFP-H460 cells or between H460 cells treated with BPK-29 or DMSO. Genes were ranked based on their FDR. […] Gene expression changes for CRY1, DEPDC1, and CPLX2 were determined by qPCR and data represents mean values+SD (n=4-10). […] Gene expression changes for Cry1, DEPDC1, and CPLX2 were determined by qPCR and data represents mean values+SD (n=4-6). […] Protein expression was analyzed by immunoblotting. […] Top: H460 cells were treated with cycloheximide (100 μg/mL) for the indicated time points and NR0B1 protein content assessed by immunoblotting. […] NR0B1 protein content was determined following cycloheximide treatment and data were fit into a one-phase exponential decay model. […]

[2] = system: cysteines in NSCLC cell proteomes (H460 cells); test: isoTOP-ABPP of compound-treated H460 cells, proteome-wide; type: cell-based, human; details: KEAP1-mutant NSCLCs
Method: For analysis of NR0B1 ligands or control compound reactivity, H460 cells or H460 cells expressing luciferase in a 10 cm plate were incubated with indicated compounds in serum/dye-free RPMI for 3 hours at 37° C. Cells were washed once ice-cold PBS and lysed in 1% Triton X-100 dissolved in PBS with protease inhibitors (Sigma) by sonication. Samples were clarified by centrifugation for 10 min at 16,000×g. Lysate was adjusted to 1.5 mg ml^−1 in 500 μL.
Samples were labeled for 1 h at ambient temperature with 100 μM iodoacetamide alkyne (1, IA-alkyne, 5 μL of 10 mM stock in DMSO). Samples were conjugated by copper-catalyzed azide-alkyne cycloaddition (CuAAC) to isotopically labeled, TEV-cleavable tags (TEV-tags). Heavy CuAAC reaction mixtures was added to the DMSO-treated or shGFP control samples and light CuAAC reaction mixture was added to compound-treated or shNRF2 samples. The CuAAC reaction mixture consisted of TEV tags (light or heavy, 10 μL of 5 mM stocks in DMSO, final concentration=100 μM), 1 mM tris(2-carboxyethyl)phosphine hydrochloride (TCEP; fresh 50× stock in water, final concentration=1 mM), ligand (17× stock in DMSO:t-butanol 1:4, final concentration=100 μM) and 1 mM CuSO4 (50× stock in water, final concentration=1 mM). The samples were allowed to react for 1 h at which point the samples were centrifuged (16,000×g, 5 min, 4° C.). […]

SMILES: O=C(c1ccc(N2CCOCC2)cc1)N1CCC(CN(C(=O)CCl)c2cncnc2)CC1 [BPK-9, 2-chloro-N-((1-(4-morpholinobenzoyl)piperidin-4-yl)methyl)-N-(pyrimidin-5-yl)acetamide]
- CRY1 protein content [1]: not observed

SMILES: O=C(CCl)N(Cc1cccc(Cl)c1F)c1ccc(Cl)nc1 [BPK-26, 2-chloro-N-(3-chloro-2-fluorobenzyl)-N-(6-chloropyridin-3-yl)acetamide]
- overall proteomic selectivity [2]: good overall proteomic selectivity

SMILES: O=C(c1ccc(N2CCOCC2)cc1)N1CCCC(N(Cc2ccccc2)C(=O)CCl)CC1 (stereo not shown) [BPK-29, N-benzyl-2-chloro-N-(1-(4-morpholinobenzoyl)azepan-4-yl)acetamide]
- CRY1 protein content [1]: reduces CRY1 protein content; also recorded: substantial reduction in CRY1 protein content
- overall proteomic selectivity [2]: good overall proteomic selectivity
